Source: patent US20230085307A1, “PYRIDAZINONE COMPOUND AND HERBICIDE” (NISSAN CHEMICAL CORPORATION, priority 2019, published 2023)

What was measured:
Italian ryegrass [1] = test: Test Example 4: herbicidal effect by soil treatment (Table 19, symbol K); format: in vivo, Italian ryegrass (Lolium multiflorum)
In short: (§1)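 Applied as a water-diluted emulsion, the compound was sprayed onto soil covering newly sown seeds. Evaluation came three weeks after application, in a greenhouse held at 25° C. to 30° C.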

green foxtail [2] = test: Test Example 4: herbicidal effect by soil treatment (Table 19, symbol G); format: in vivo, green foxtail (Setaria viridis)
In short: as §1

redroot pigweed [3] = test: Test Example 4: herbicidal effect by soil treatment (Table 19, symbol N); format: in vivo, redroot pigweed (Amaranthus retroflexus)
In short: as §1

velvetleaf [4] = test: Test Example 5: herbicidal effect by foliage application, plastic box (Table 20, symbol M); format: in vivo, velvetleaf (Abutilon theophrasti); conditions: foliage application, 320 g/ha
In short: (§2)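 Sow seeds spot-wise in sterilized diluvial soil; cover with ~1.5 cm soil. Grow 14 days in greenhouse, 25° C. to 30° C. Spray foliage with emulsion diluted to predetermined amount. Rate effect after 3 weeks.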

southern crabgrass [5] = test: Test Example 4: herbicidal effect by soil treatment (Table 19, symbol F); format: in vivo, southern crabgrass (Digitaria ciliaris)
In short: as §1

blackgrass [6] = test: Test Example 5: herbicidal effect by foliage application, plastic box (Table 20, symbol J); format: in vivo, blackgrass (Alopecurus myosuroides); conditions: foliage application, 320 g/ha
In short: as §2

barnyard grass [7] = test: Test Example 5: herbicidal effect by foliage application, plastic box (Table 20, symbol H); format: in vivo, barnyard grass (Echinochloa crus-galli); conditions: foliage application, 320 g/ha
In short: as §2

chickweed [8] = test: Test Example 4: herbicidal effect by soil treatment (Table 19, symbol P); format: in vivo, common chickweed (Stellaria media); conditions: 320 g/ha
In short: as §1

windgrass [9] = test: Test Example 5: herbicidal effect by foliage application, plastic box (Table 20, symbol L); format: in vivo, windgrass (Apera spica-venti); conditions: foliage application, 320 g/ha
In short: as §2

barnyard grass [10] = test: Test Example 3: herbicidal effect by foliage application, Wagner pot (Table 18, symbol H); format: in vivo, barnyard grass (Echinochloa crus-galli)
In short: (§3)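 Plants were sown in alluvial soil held under 0.1–0.5 cm standing water and grown 14 days in a greenhouse at 25–30 °C. An emulsifiable formulation, water-diluted to the set dose, was then sprayed onto the foliage, and effects were scored three weeks later using previously defined criteria.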

rice flat sedge = test: Test Example 3: herbicidal effect by foliage application, Wagner pot (Table 18, symbol E); format: in vivo, rice flat sedge (Cyperus iria)
In short: as §3

persian speedwell [11] = test: Test Example 4: herbicidal effect by soil treatment (Table 19, symbol R); format: in vivo, Persian speedwell (Veronica persica)
In short: as §1

Italian ryegrass [12] = test: Test Example 5: herbicidal effect by foliage application, plastic box (Table 20, symbol K); format: in vivo, Italian ryegrass (Lolium multiflorum); conditions: foliage application, 320 g/ha
In short: as §2

velvetleaf [13] = test: Test Example 4: herbicidal effect by soil treatment (Table 19, symbol M); format: in vivo, velvetleaf (Abutilon theophrasti)
In short: as §1

wild oat [14] = test: Test Example 5: herbicidal effect by foliage application, plastic box (Table 20, symbol I); format: in vivo, wild oat (Avena fatua); conditions: foliage application, 320 g/ha
In short: as §2

blackgrass [15] = test: Test Example 4: herbicidal effect by soil treatment (Table 19, symbol J); format: in vivo, blackgrass (Alopecurus myosuroides)
In short: as §1

barnyard grass [16] = test: Test Example 4: herbicidal effect by soil treatment (Table 19, symbol H); format: in vivo, barnyard grass (Echinochloa crus-galli)
In short: as §1

southern crabgrass [17] = test: Test Example 5: herbicidal effect by foliage application, plastic box (Table 20, symbol F); format: in vivo, southern crabgrass (Digitaria ciliaris); conditions: foliage application, 320 g/ha
In short: as §2

windgrass [18] = test: Test Example 4: herbicidal effect by soil treatment (Table 19, symbol L); format: in vivo, windgrass (Apera spica-venti)
In short: as §1

lambsquarters [19] = test: Test Example 5: herbicidal effect by foliage application, plastic box (Table 20, symbol O); format: in vivo, lambsquarters (Chenopodium album); conditions: foliage application, 320 g/ha
In short: as §2

late watergrass = test: Test Example 2: herbicidal activity, application during weed generation under submerged conditions (Table 17, symbol A); format: in vivo, late watergrass (Echinochloa oryzicola); conditions: AAH 320 g/ha; application during weed generation, submerged conditions
In short: (§4)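 Wagner pot, alluvial soil, 4 cm flood; mixed sowing of all species; greenhouse 25° C.–30° C. Emulsifiable formulation, water-diluted to predetermined dose, applied to paddy water at 1–2 leaf stage. Effect rated at 3 wk using the earlier test's scoring criteria.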

Japanese bulrush = test: Test Example 2: herbicidal activity, application during weed generation under submerged conditions (Table 17, symbol B); format: in vivo, Japanese bulrush (Schoenoplectus juncoides); conditions: AAH 320 g/ha; application during weed generation, submerged conditions
In short: as §4

Chinese sprangletop = test: Test Example 3: herbicidal effect by foliage application, Wagner pot (Table 18, symbol D); format: in vivo, chinese sprangletop (Leptochloa chinensis)
In short: as §3

green foxtail [20] = test: Test Example 5: herbicidal effect by foliage application, plastic box (Table 20, symbol G); format: in vivo, green foxtail (Setaria viridis); conditions: foliage application, 320 g/ha
In short: as §2

wild oat [21] = test: Test Example 4: herbicidal effect by soil treatment (Table 19, symbol I); format: in vivo, wild oat (Avena fatua)
In short: as §1

persian speedwell [22] = test: Test Example 5: herbicidal effect by foliage application, plastic box (Table 20, symbol R); format: in vivo, Persian speedwell (Veronica persica); conditions: foliage application, 320 g/ha
In short: as §2

lambsquarters [23] = test: Test Example 4: herbicidal effect by soil treatment (Table 19, symbol O); format: in vivo, lambsquarters (Chenopodium album)
In short: as §1

oval-leafed pondweed = test: Test Example 2: herbicidal activity, application during weed generation under submerged conditions (Table 17, symbol C); format: in vivo, oval-leafed pondweed (Monochoria vaginalis); conditions: AAH 320 g/ha; application during weed generation, submerged conditions
In short: as §4

redroot pigweed [24] = test: Test Example 5: herbicidal effect by foliage application, plastic box (Table 20, symbol N); format: in vivo, redroot pigweed (Amaranthus retroflexus); conditions: foliage application, 320 g/ha, evaluated three weeks after application
In short: as §2

chickweed [25] = test: Test Example 5: herbicidal effect by foliage application, plastic box (Table 20, symbol P); format: in vivo, common chickweed (Stellaria media); conditions: foliage application, 320 g/ha, evaluated three weeks after application
In short: as §2

[26] = amount of applied herbicide 320 g/ha
[27] = evaluated three weeks after application

COCCOCOc1c(C)nn(C)c(=O)c1-c1c(-c2ccc(C(C)C)cc2)sc2ccc(F)cc12 [2-015]
herbicidal effect rating, K: Italian ryegrass (Italian ryegrass [1]; 320 g/ha): 0 (Herbicidal rate of 5% or less (almost no effect))
herbicidal effect rating, G: green foxtail (green foxtail [2]; 320 g/ha): 0 (Herbicidal rate of 5% or less (almost no effect))
herbicidal effect rating, N: redroot pigweed (redroot pigweed [3]; 320 g/ha): 5 (Herbicidal rate of 90% or more (almost completely withered))
effect on velvetleaf (M) (velvetleaf [4]; 3 weeks after application): 5 (Herbicidal rate of 90% or more (almost completely withered))
herbicidal effect rating, F: southern crabgrass (southern crabgrass [5]; 320 g/ha): 0 (Herbicidal rate of 5% or less (almost no effect))
effect on blackgrass (J) (blackgrass [6]; 3 weeks after application): 0 (Herbicidal rate of 5% or less (almost no effect))
effect on barnyard grass (H) (barnyard grass [7]; 3 weeks after application): 3 (Herbicidal rate of 40% or more and less than 70%)
herbicidal effect rating, P: chickweed (chickweed [8]): 0 (Herbicidal rate of 5% or less (almost no effect))
effect on windgrass (L) (windgrass [9]; 3 weeks after application): 4 (Herbicidal rate of 70% or more and less than 90%)
herbicidal effect on H (barnyard grass), rating 0-5 (barnyard grass [10]; 320 g/ha): 5 (Herbicidal rate of 90% or more (almost completely withered))
herbicidal effect on E (rice flat sedge), rating 0-5 (rice flat sedge; 320 g/ha): 5 (Herbicidal rate of 90% or more (almost completely withered))
herbicidal effect rating, R: persian speedwell (persian speedwell [11]; 320 g/ha): 4 (Herbicidal rate of 70% or more and less than 90%)
effect on Italian ryegrass (K) (Italian ryegrass [12]; 3 weeks after application): 0 (Herbicidal rate of 5% or less (almost no effect))
herbicidal effect rating, M: velvetleaf (velvetleaf [13]; 320 g/ha): 0 (Herbicidal rate of 5% or less (almost no effect))
effect on wild oat (I) (wild oat [14]; 3 weeks after application): 0 (Herbicidal rate of 5% or less (almost no effect))
herbicidal effect rating, J: blackgrass (blackgrass [15]; 320 g/ha): 0 (Herbicidal rate of 5% or less (almost no effect))
herbicidal effect rating, H: barnyard grass (barnyard grass [16]; 320 g/ha): 0 (Herbicidal rate of 5% or less (almost no effect))
effect on southern crabgrass (F) (southern crabgrass [17]; 3 weeks after application): 1 (Herbicidal rate of 5% or more and less than 20%)
herbicidal effect rating, L: windgrass (windgrass [18]; 320 g/ha): 0 (Herbicidal rate of 5% or less (almost no effect))
effect on lambsquarters (O) (lambsquarters [19]; 3 weeks after application): 5 (Herbicidal rate of 90% or more (almost completely withered))
herbicidal effect rating, A: late watergrass (late watergrass): 4 (Herbicidal rate of 70% or more and less than 90%)
herbicidal effect rating, B: Japanese bulrush (Japanese bulrush): 0 (Herbicidal rate of 5% or less (almost no effect))
herbicidal effect on D (Chinese sprangletop), rating 0-5 (Chinese sprangletop; 320 g/ha): 5 (Herbicidal rate of 90% or more (almost completely withered))
effect on green foxtail (G) (green foxtail [20]; 3 weeks after application): 0 (Herbicidal rate of 5% or less (almost no effect))
herbicidal effect rating, I: wild oat (wild oat [21]; 320 g/ha): 0 (Herbicidal rate of 5% or less (almost no effect))
effect on persian speedwell (R) (persian speedwell [22]; 3 weeks after application): 5 (Herbicidal rate of 90% or more (almost completely withered))
herbicidal effect rating, O: lambsquarters (lambsquarters [23]; 320 g/ha): 2 (Herbicidal rate of 20% or more and less than 40%)
herbicidal effect rating, C: oval-leafed pondweed (oval-leafed pondweed): 0 (Herbicidal rate of 5% or less (almost no effect))

CCCSc1ccc(-c2sc3ccc(F)cc3c2-c2c(O)c(C)nn(C)c2=O)cc1 [2-248]
herbicidal effect on K: Italian ryegrass (Italian ryegrass [1]; [26]): 0 (Herbicidal rate of 5% or less (almost no effect))
herbicidal effect on G: green foxtail (green foxtail [2]; [26]): 4 (Herbicidal rate of 70% or more and less than 90%)
herbicidal effect on N: redroot pigweed (criteria 0-5) (redroot pigweed [24]): 5 (Herbicidal rate of 90% or more (almost completely withered))
herbicidal effect on N: redroot pigweed (redroot pigweed [3]; [26]): 5 (Herbicidal rate of 90% or more (almost completely withered))
herbicidal effect on M: velvetleaf (criteria 0-5) (velvetleaf [4]; [27]): 5 (Herbicidal rate of 90% or more (almost completely withered))
herbicidal effect on F: southern crabgrass (southern crabgrass [5]; [26]): 1 (Herbicidal rate of 5% or more and less than 20%)
herbicidal effect on J: blackgrass (criteria 0-5) (blackgrass [6]; [27]): 4 (Herbicidal rate of 70% or more and less than 90%)
herbicidal effect on H: barnyard grass (criteria 0-5) (barnyard grass [7]; [27]): 5 (Herbicidal rate of 90% or more (almost completely withered))
herbicidal effect on L: windgrass (criteria 0-5) (windgrass [9]; [27]): 5 (Herbicidal rate of 90% or more (almost completely withered))
herbicidal effect on P: chickweed (criteria 0-5) (chickweed [25]): 5 (Herbicidal rate of 90% or more (almost completely withered))
herbicidal effect on H: barnyard grass (barnyard grass [10]; [26]): 5 (Herbicidal rate of 90% or more (almost completely withered))
herbicidal effect on E: rice flat sedge (rice flat sedge; [26]): 4 (Herbicidal rate of 70% or more and less than 90%)
herbicidal effect on R: persian speedwell (persian speedwell [11]; [26]): 4 (Herbicidal rate of 70% or more and less than 90%)
herbicidal effect on K: Italian ryegrass (criteria 0-5) (Italian ryegrass [12]; [27]): 4 (Herbicidal rate of 70% or more and less than 90%)
herbicidal effect on M: velvetleaf (velvetleaf [13]; [26]): 3 (Herbicidal rate of 40% or more and less than 70%)
herbicidal effect on I: wild oat (criteria 0-5) (wild oat [14]; [27]): 5 (Herbicidal rate of 90% or more (almost completely withered))
herbicidal effect on J: blackgrass (blackgrass [15]; [26]): 0 (Herbicidal rate of 5% or less (almost no effect))
herbicidal effect on H: barnyard grass (barnyard grass [16]; [26]): 2 (Herbicidal rate of 20% or more and less than 40%)
herbicidal effect on F: southern crabgrass (criteria 0-5) (southern crabgrass [17]; [27]): 5 (Herbicidal rate of 90% or more (almost completely withered))
herbicidal effect on L: windgrass (windgrass [18]; [26]): 0 (Herbicidal rate of 5% or less (almost no effect))
herbicidal effect on O: lambsquarters (criteria 0-5) (lambsquarters [19]; [27]): 5 (Herbicidal rate of 90% or more (almost completely withered))
herbicidal effect rating, A: late watergrass (late watergrass): 4 (Herbicidal rate of 70% or more and less than 90%)
herbicidal effect rating, B: Japanese bulrush (Japanese bulrush): 0 (Herbicidal rate of 5% or less (almost no effect))
herbicidal effect on D: Chinese sprangletop (Chinese sprangletop; [26]): 5 (Herbicidal rate of 90% or more (almost completely withered))
herbicidal effect on G: green foxtail (criteria 0-5) (green foxtail [20]; [27]): 5 (Herbicidal rate of 90% or more (almost completely withered))
herbicidal effect on I: wild oat (wild oat [21]; [26]): 0 (Herbicidal rate of 5% or less (almost no effect))
herbicidal effect on R: persian speedwell (criteria 0-5) (persian speedwell [22]; [27]): 5 (Herbicidal rate of 90% or more (almost completely withered))
herbicidal effect on O: lambsquarters (lambsquarters [23]; [26]): 4 (Herbicidal rate of 70% or more and less than 90%)
herbicidal effect rating, C: oval-leafed pondweed (oval-leafed pondweed): 0 (Herbicidal rate of 5% or less (almost no effect))
